Data from patent publication US20240366638A1, “[…] FOR TREATING PSY[…]” (SYNAPTIVE THERAPEUTICS LLC, priority 2021, published 2024).
Entries after “also recorded” stand apart in the source; their conditions may differ.

Assays:
male C57BL/6 mice [1] = assay: Open field test (OFT), time in center zone; type: in vivo; set-up: key to OFT (center time): ↓ = decrease; ↑ = increase; neg = negative; pos = positive; ns = not statistically significant; conditions: for OFT (center time): summary of effect on behavior, doses tested IP; for Time in the center zone of the open field chamber, statistical comparison between groups: various doses IP, 30 min period, one-way ANOVA with Tukey's test, diazepam positive control
Experimental: (§1) Methods. The open field test (OFT) was conducted by placing a mouse in a gray chamber 40×40 cm of 30 cm height and allowed to explore at will for 30 minutes. A digital camera positioned above the chamber recorded behavior. Animals that spend more time in the center (open area) compared to along the walls (thigmotaxis) are deemed less anxious. The open field apparatus was cleaned with Peroxigard wipes after each use.
(§2) Statistical analysis. Data were analyzed using a one-way ANOVA with drug dose as the primary factor. Post-hoc multiple comparison analysis was performed following significant main effects using Tukey's multiple comparisons test (GraphPad Prism 9.2.0). Statistical significance was set at P<0.05.
(§3) Results. A total of 170 male C57BL/6 mice were used for this study (see TABLE 3.). One mouse in the diazepam group died of unknown causes. Another mouse developed a skin condition in the aeruginascin (1.0 mg/kg) group and was excluded from the FST test. All other test groups consisted of N=10 per group. Statistical comparisons are noted in each figure legend.

male C57BL/6 mice [2] = assay: Open field test (OFT), locomotor activity; type: in vivo; set-up: key to OFT: ↓ = decrease; ↑ = increase; neg = negative; pos = positive; ns = not statistically significant; conditions: for OFT: summary of effect on overall locomotor activity, doses tested IP, mice; for Locomotor activity in the open field, statistical comparison between groups: various doses IP, 30 min period, one-way ANOVA with Tukey's test, diazepam positive control
Experimental: as §1, §2, §3

male C57BL/6 mice [3] = assay: Elevated plus maze (EPM), time on open arms; type: in vivo; set-up: key to EPM: ↓ = decrease; ↑ = increase; neg = negative; pos = positive; ns = not statistically significant; conditions: for EPM: summary of effect on behavior (time on open arms), doses tested IP; for Time spent on the open arms of the EPM, statistical comparison between groups: various doses IP, 5 minutes, one-way ANOVA with Tukey's test, diazepam positive control
Experimental: (§4) The elevated plus maze (EPM) is a behavioral assay that measures anxiety in rodents. The apparatus is composed of open and closed arms arranged in a “plus” measuring, 35 cm arm length; 5 cm arm width; 20 cm wall height and stands 61 cm height. Each mouse was placed on the maze within the center area facing towards an open arm and allowed to explore the EPM for 5 minutes. The experimenter observed the mouse from outside the test room through an observational window. Behavior was recorded via a digital camera mounted above the maze. The apparatus was cleaned with Peroxigard wipes after each trial.
as §2, §3

male C57BL/6 mice [4] = assay: Tail suspension test (TST); type: in vivo; conditions: for TST: summary of effect on behavior, doses tested IP, mice; for Tail suspension test activity (time immobile), statistical comparison between groups: various doses IP, 6 minutes, one-way ANOVA with Tukey's test, ketamine positive control
Experimental: (§5) The tail-suspension test (TST) is a model of depression and has been used to screen prospective antidepressant compounds. It involves suspending mice above the ground by their tails with tape for a predetermined time. A 17 cm piece of tape was taped to the tail (2 cm of the 17 cm) of each mouse and then attached to a metal shelf for 6 minutes. Each mouse was digitally recorded and data analyzed using specialized software with particular focus on time immobile. After the trial, tape was removed and mice returned to their home cage.
as §2, §3

male C57BL/6 mice [5] = assay: Forced swim test (FST); type: in vivo; set-up: key to FST: ↓ = decrease; ↑ = increase; neg = negative; pos = positive; ns = not statistically significant; conditions: for FST: summary of effect on behavior, doses tested IP, mice; for Forced swim test activity, statistical comparison between groups: various doses IP, 6 minutes, one-way ANOVA with Tukey's test, ketamine positive control
Experimental: (§6) The forced swim test is a classic behavioral assay to test for depressive behavior such as immobility. The apparatus is composed of a Plexiglas cylinder measuring (20 cm diameter, 45 cm height) that is filled with water maintained at room temperature (23-25 C). During testing, mice were placed into the water by the nape of the neck facing the wall and released and behavior recorded via a digital camera for 6 minutes. After the test, mice were dried off with a towel and placed in their home cage in which half is heated by a heating pad placed underneath the cage. Fecal matter was removed after every test. Water was changed after 10 mice were run in each cylinder. After the completion of the experiment, water was drained and the cylinder cleaned with Peroxigard wipes.
as §2, §3

male C57BL/6 mice [6] = assay: Animal models of anxiety and depression in mice, overall (OFT, EPM, TST, FST); type: in vivo; conditions: IP, FST taken together
Experimental: Summary. The goal of the present project was to assess psilocybin metabolites in animal models of anxiety and depression in mice. Specifically, baeocystin (0.3 mg/kg-30 mg/kg), norbaeocystin (0.3-3.0 mg/kg), aeruginascin (0.3-3.0 mg/kg) and norpsilocin (0.3-3.0 mg/kg) were tested in the open field test (OFT), elevated plus maze (EPM), tail suspension test (TST) and forced swim test (FST). Overall, most compounds were ineffective and/or increased negative behaviors.
as §1, §4, §5
as §6, with “After the completion of the experiment, water was drained and the cylinder cleaned with Peroxigard wipes.” left out
Statistical analysis. Data were analyzed using a one-way ANOVA with drug dose as the primary factor. […]

[7] = cited from earlier work

SMILES | OFT (center time) (male C57BL/6 mice [1]; mice) | Time in the center zone of the open field chamber, statistical comparison between groups (male C57BL/6 mice [1]) | OFT (male C57BL/6 mice [2]) | Locomotor activity in the open field, statistical comparison between groups (male C57BL/6 mice [2]) | EPM (male C57BL/6 mice [3]; mice) | Time spent on the open arms of the EPM, statistical comparison between groups (male C57BL/6 mice [3]) | TST (male C57BL/6 mice [4]) | Tail suspension test activity (time immobile), statistical comparison between groups (male C57BL/6 mice [4]) | FST (male C57BL/6 mice [5]) | Forced swim test activity, statistical comparison between groups (male C57BL/6 mice [5]) | Overall effect across behavioral tests of anxiety and depression (male C57BL/6 mice [6]) | Time spent on the open arms in the EPM (male C57BL/6 mice [3]; 10 mg/kg, IP, mice) | Time spent on the open arm in the EPM (male C57BL/6 mice [3]; 30 mg/kg (highest dose), IP, mice) | Hallucinogenic effect in a self-administered assay ([7]; 4 mg of baeocystin, Gartz research paper) | Psychoactivity in humans compared with psilocybin ([7]; 10 mg of baeocystin, study reported by Gartz) | Time spent in the center zone in the OFT (male C57BL/6 mice [1]; 3.0 mg/kg, IP, mice)
C[N+](C)(C)CCc1c[nH]c2cccc(OP(=O)(O)O)c12 [Aeruginascin] | ns | no significant differences between groups | ↓ (neg) | significant difference between aeruginascin 0.3 and 1.0 mg/kg | ns | no differences between groups | ↑ (neg) | significant differences between saline and ketamine and all doses of aeruginascin | ↑ (neg) | significant differences between ketamine and aeruginascin 0.3 and 3.0 mg/kg doses | either produced no significant effect or a significant negative impact across all behavioral tests |  |  |  |  | 
CNCCc1c[nH]c2cccc(OP(=O)(O)O)c12 [Baeocystin] | ns | no significant difference between groups | ↓ (neg) | significant differences between the highest dose of baeocystin and all other groups | ↑ (pos) | the highest dose of baeocystine increased time spent on the open arm compared to saline | ↑ (neg) | significant differences between the two highest doses of baeocystin and other groups | ns | no significant differences between groups | can exert anxiolytic effects in mice using certain behavioral procedures; also recorded: have anxiolytic activity and no harmful psychoactive effects, including no depressive activity | tended to increase time spent on the open arms however, this did not reach statistical significance | significantly increased time spent on the open arm | a gentle hallucinogenic experience | about as psychoactive as a similar amount of psilocybin | 
NCCc1c[nH]c2cccc(OP(=O)(O)O)c12 [Norbaeocystin] | ↓ (neg) | significant difference between diazepam and the highest dose of norbeaocystin | ns | a trend towards a difference between norbaeocystin 1.0 vs. 3.0 mg/kg | ns | no differences between groups | ↑ (neg) | significant differences between saline and ketamine and all doses of norbaeocystin | ns | no significant differences between groups | either produced no significant effect or a significant negative impact across all behavioral tests |  |  |  |  | 
CNCCc1c[nH]c2cccc(O)c12 [Norpsilocin] | ↑ (pos) | significantly increased time spent in the center zone of the OFT; also recorded: highly significant differences between the highest dose of norpsilocin and all other groups | ↓ (neg) | significant differences between diazepam and norpsilocin 1.0 and 3.0 mg/kg | ns | no differences between groups | ↑ (neg) | significant differences between ketamine and all doses of norpsilocin | ns | no differences between any groups | can exert anxiolytic effects in mice using certain behavioral procedures; also recorded: have anxiolytic activity and no harmful psychoactive effects, including no depressive activity |  |  |  |  | the only compound that increased time spent in the center zone in the OFT and this effect was highly significant
